Reference: patent publication US20020025918A1, “Methods of using helical peptides in plants” (priority 1987, published 2002)
In brackets after ≈: the same amount, converted by molar mass. Residues, ends and D or L forms follow the SMILES beside them.

Assays:
E. coli [1] = experiment: MBC and MIC susceptibility test; assay type: cell-based; details: for MBC: Table III
S. aureus = experiment: MBC and MIC susceptibility test; assay type: cell-based
P. aeruginosa = experiment: MBC and MIC susceptibility test; assay type: cell-based; details: for MBC: Table III, P. aeuriginosa (−)
S. auerus = experiment: Synergy of lytic peptide with antibiotics; details: Manitou-1 0 μM
E. coli [2] = experiment: Synergy of lytic peptide with antibiotics; details: Manitou-1 0 μM
EL-4 lymphoma cells = experiment: EL-4 cell killing, trypan blue exclusion; details: one hour, 37° C.

## CC[C@H](C)[C@H](NC(=O)CNC(=O)[C@H](CC(N)=O)NC(=O)[C@H](CCCNC(=N)N)NC(=O)[C@@H](NC(=O)[C@H](CC(N)=O)NC(=O)[C@H](CCCNC(=N)N)NC(=O)CNC(=O)[C@@H](NC(=O)[C@H](CCCCN)NC(=O)[C@H](CCC(=O)O)NC(=O)[C@@H](NC(=O)[C@H](CCCCN)NC(=O)[C@H](CCCCN)NC(=O)[C@H](Cc1ccccc1)NC(=O)[C@@H](NC(=O)[C@H](CCCCN)NC(=O)[C@H](Cc1c[nH]c2ccccc12)NC(=O)[C@H](CCCCN)NC(=O)[C@@H]1CCCN1C(=O)[C@@H](N)CCSC)C(C)C)[C@@H](C)CC)C(C)C)[C@@H](C)CC)C(=O)N[C@H](C(=O)N[C@@H](CCCCN)C(=O)N[C@@H](C)C(=O)NCC(=O)N1CCC[C@H]1C(=O)N[C@@H](C)C(=O)N[C@H](C(=O)N[C@@H](C)C(=O)N[C@H](C(=O)N[C@@H](CC(C)C)C(=O)NCC(=O)N[C@@H](CCC(=O)O)C(=O)N[C@@H](C)C(=O)N[C@@H](CCCCN)C(=O)N[C@@H](C)C(=O)N[C@@H](CC(C)C)C(=O)NCC(N)=O)C(C)C)[C@@H](C)CC)C(C)C [SB-37] (H-MPKWKVFKKIEKVGRNIRNGIVKAGPAIAVLGEAKALG-NH2)
E. coli [1]
  MBC: 2.0 µM (≈ 8.18 µg/mL)
S. aureus; Table III, S. aureus (+)
  MBC: 64 µM (≈ 262 µg/mL)
P. aeruginosa
  MBC: 3.5 µM (≈ 14.3 µg/mL)

## CC(C)C[C@H](NC(=O)[C@H](C)NC(=O)[C@H](CCCCN)NC(=O)[C@H](CCCCN)NC(=O)[C@H](CC(C)C)NC(=O)[C@H](C)NC(=O)[C@H](CCCCN)NC(=O)[C@H](CCCCN)NC(=O)[C@H](CC(C)C)NC(=O)[C@H](CCCCN)NC(=O)[C@H](CCCCN)NC(=O)[C@H](CC(C)C)NC(=O)[C@H](C)NC(=O)[C@H](CCCCN)NC(=O)[C@H](CCCCN)NC(=O)[C@H](CC(C)C)NC(=O)[C@H](C)NC(=O)[C@H](CCCCN)NC(=O)[C@H](CC(C)C)NC(=O)[C@H](C)NC(=O)[C@H](CC(C)C)NC(=O)[C@H](C)NC(=O)[C@@H](N)Cc1ccccc1)C(N)=O [Hecate-1] (H-FALALKALKKALKKLKKALKKAL-NH2)
E. coli [1]
  MBC: 4.0 µM (≈ 10.1 µg/mL)
P. aeruginosa
  MBC: 10.0 µM (≈ 25.4 µg/mL)

## [H]/N=C(/N)N[C@H]1[C@H](O)[C@@H](O)[C@H](O[C@@H]2O[C@@H](C)[C@](O)(C=O)[C@H]2O[C@@H]2O[C@@H](CO)[C@H](O)[C@@H](O)[C@@H]2NC)[C@@H](N/C(N)=N\[H])[C@@H]1O [Streptomycin, reference compound]
S. auerus; antibiotic 0.5 μM alone
  % Cell Death In S. auerus: 0%
S. auerus; antibiotic 5.0 μM alone
  % Cell Death In S. auerus: 87%
E. coli [2]; antibiotic 0.5 μM alone
  % Cell Death In E. coli: 0%
E. coli [2]; antibiotic 5.0 μM alone
  % Cell Death In E. coli: 87%

## CN(C)[C@@H]1C(O)=C(C(N)=O)C(=O)[C@@]2(O)C(O)=C3C(=O)c4c(O)cccc4[C@@](C)(O)[C@H]3C[C@@H]12 [Tetracycline, reference compound]
S. auerus; antibiotic 0.5 μM alone
  % Cell Death In S. auerus: 0%
S. auerus; antibiotic 5.0 μM alone
  % Cell Death In S. auerus: 35%
E. coli [2]; antibiotic 0.5 μM alone
  % Cell Death In E. coli: 0%
E. coli [2]; antibiotic 5.0 μM alone
  % Cell Death In E. coli: 58%

## CC(C)C[C@H](NC(=O)[C@H](C)NC(=O)[C@H](CC(C)C)NC(=O)[C@H](C)NC(=O)[C@H](CC(C)C)NC(=O)[C@H](CCCCN)NC(=O)[C@H](C)NC(=O)[C@H](CC(C)C)NC(=O)[C@H](CCCCN)NC(=O)[C@H](CCCCN)NC(=O)[C@H](C)NC(=O)[C@H](CC(C)C)NC(=O)[C@H](CCCCN)NC(=O)[C@H](CCCCN)NC(=O)[C@H](CC(C)C)NC(=O)[C@H](CCCCN)NC(=O)[C@H](CCCCN)NC(=O)[C@H](C)NC(=O)[C@H](CC(C)C)NC(=O)[C@H](CCCCN)NC(=O)[C@H](CCCCN)NC(=O)[C@H](C)NC(=O)[C@@H](N)Cc1ccccc1)C(N)=O [Shiva-10]
E. coli [1]
  MBC: 1.0 µM (≈ 2.54 µg/mL)
P. aeruginosa
  MBC: 2.0 µM (≈ 5.07 µg/mL)

## CC(C)C[C@H](NC(=O)[C@H](CCCCN)NC(=O)[C@H](C)NC(=O)[C@H](CC(C)C)NC(=O)[C@H](CCCCN)NC(=O)[C@H](CCCCN)NC(=O)[C@H](C)NC(=O)[C@H](CC(C)C)NC(=O)[C@H](CCCCN)NC(=O)[C@H](C)NC(=O)[C@H](CC(C)C)NC(=O)[C@H](CCCCN)NC(=O)[C@H](CCCCN)NC(=O)[C@@H](N)CC(C)C)C(=O)N[C@@H](C)C(=O)N[C@@H](CCCCN)C(=O)N[C@@H](CCCCN)C(=O)N[C@@H](CC(C)C)C(=O)N[C@@H](C)C(=O)N[C@@H](CCCCN)C(=O)N[C@@H](CCCCN)C(N)=O [Anubis-8]
E. coli [1]
  antibacterial result of treatment (Table I; MBC): 16 µM
S. aureus; S. auerus (+)
  antibacterial result of treatment (Table I; MBC): 8 µM
P. aeruginosa; P. aeruginosa (−)
  antibacterial result of treatment (Table I; MBC): 16 µM

## CC[C@H](C)[C@H](NC(=O)CNC(=O)[C@H](CCC(N)=O)NC(=O)[C@H](CCCCN)NC(=O)[C@@H](NC(=O)[C@H](CCC(N)=O)NC(=O)[C@H](CCCCN)NC(=O)CNC(=O)[C@@H](NC(=O)[C@H](CCCNC(=N)N)NC(=O)[C@H](CC(=O)O)NC(=O)[C@@H](NC(=O)[C@H](CCCNC(=N)N)NC(=O)[C@H](CCCNC(=N)N)NC(=O)[C@H](Cc1ccccc1)NC(=O)[C@H](CC(C)C)NC(=O)[C@H](CCCNC(=N)N)NC(=O)[C@H](Cc1c[nH]c2ccccc12)NC(=O)[C@H](CCCNC(=N)N)NC(=O)[C@@H]1CCCN1C(=O)[C@@H](N)CCSC)[C@@H](C)CC)C(C)C)[C@@H](C)CC)C(=O)N[C@@H](CC(C)C)C(=O)N[C@@H](CCCNC(=N)N)C(=O)N[C@@H](C)C(=O)NCC(=O)N1CCC[C@H]1C(=O)N[C@@H](C)C(=O)N[C@H](C(=O)N[C@@H](C)C(=O)N[C@@H](CC(C)C)C(=O)N[C@H](C(=O)NCC(=O)N[C@@H](CC(=O)O)C(=O)N[C@@H](C)C(=O)N[C@@H](CCCNC(=N)N)C(=O)N[C@@H](C)C(=O)N[C@H](C(=O)NCC(N)=O)C(C)C)C(C)C)[C@@H](C)CC [Shiva-1] (H-MPRWRLFRRIDRVGKQIKQGILRAGPAIALVGDARAVG-NH2; N-terminus and C-terminus assumed)
EL-4 lymphoma cells; 10 μM peptide
  % EL-4 Cells Killed: 2%
EL-4 lymphoma cells; 25 μM peptide
  % EL-4 Cells Killed: 18%
EL-4 lymphoma cells; 50 μM peptide
  % EL-4 Cells Killed: 42%
EL-4 lymphoma cells; 100 μM peptide
  % EL-4 Cells Killed: 87%
